The record followed here is article PMC8807600, “Catalytic trajectory of a dimeric nonribosomal peptide synthetase subunit with an inserted epimerase domain” (Nature Communications, 2022).

The target in one series is PchD (Pseudomonas aeruginosa, UniProt Q9HWG3). To be noted: 10 uM PchE, 10 uM PchD, 10 uM SrfD, 5 mM cysteine, 1 mM salicylate, 5 mM ATP, 10 mM MgCl2, 50 mM Tris pH 7.9, 25 C, 2.5 h; PchD loads salicylate onto ArCP of PchE (coupled read-out).
Series [1] concerns the molecule itself. As to the kind of experiment: cryo-EM structure; PchE reacted with PchD (0.5:1), salicylate, cysteine, ATP, MgCl2, then purified on Superose 6 Increase in 50 mM Tricine pH 8.0, 1 mM MgCl2; ~4 mg/mL with 1 mM cysteine and ATP; three conformations at 2.97, 3.78 and 3.47 Å.

By stoichiometry N is commonly meant the number of molecules, sites or subunits per partner or assembly.

PchD, sequence (Q9HWG3 whole entry): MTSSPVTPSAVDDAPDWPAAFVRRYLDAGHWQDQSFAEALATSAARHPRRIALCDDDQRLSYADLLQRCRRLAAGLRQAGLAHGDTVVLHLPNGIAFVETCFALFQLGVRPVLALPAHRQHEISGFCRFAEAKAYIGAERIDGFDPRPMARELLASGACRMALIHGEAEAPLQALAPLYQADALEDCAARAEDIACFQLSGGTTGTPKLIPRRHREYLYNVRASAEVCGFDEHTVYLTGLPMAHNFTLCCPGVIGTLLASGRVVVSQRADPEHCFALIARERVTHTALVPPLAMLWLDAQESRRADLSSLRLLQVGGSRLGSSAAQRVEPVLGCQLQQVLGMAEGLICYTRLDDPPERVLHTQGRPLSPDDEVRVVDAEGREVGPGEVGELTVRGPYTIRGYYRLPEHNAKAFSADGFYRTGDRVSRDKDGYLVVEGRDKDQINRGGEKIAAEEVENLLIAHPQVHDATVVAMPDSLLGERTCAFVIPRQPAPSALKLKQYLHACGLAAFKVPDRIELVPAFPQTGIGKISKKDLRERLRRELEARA

With `O=C(O)c1ccccc1O` [salicylate], the “in vitro reconstitution, HPLC and LC-MS of products” value at PchD is reported as “PchD is responsible for loading salicylate onto the ArCP domain of PchE”.

B1: PchE (dihydroaeruginoic acid synthetase, NRPS elongation module of the pyochelin pathway) (enzyme)
chain: MDLPPDSRTALRDWLTEQLADLLGEPLADVRALADDDDLLGCGLDSIRLMYLQERLRARGSTLDFAQLAQRPCLGAWLDLLACADRLSAPATVALPTAQDRDQPFELSSVQQAYWLGRGAGEVLGNVSCHAFLEFRTRDVDPQRLAAAAECVRQRHPMLRARFLDGRQQILPTPPLSCFDLQDWRTLQVDEAERDWQALRDWRAHECLAVERGQVFLLGLVRMPGGEDRLWLSLDLLAADVESLRLLLAELGVAYLAPERLAEPPALHFADYLAHRAAQRAEAAARARDYWLERLPRLPDAPALPLACAPESIRQPRTRRLAFQLSAGESRRLERLAAQHGVTLSSVFGCAFALVLARWSESAEFLLNVPLFDRHADDPRIGEVIADFTTLLLLECRMQAGVSFAEAVKSFQRNLHGAIDHAAFPALEVLREARRQGQPRSAPVVFASNLGEEGFVPAAFRDAFGDLHDMLSQTPQVWLDHQLYRVGDGILLAWDSVVGLFPEGLPETMFEAYVGLLQRLCDSAWGQPADLPLPWAQQARRALLNGQPACATARTLHRDFFLRAAEAPDADALLYRDQRVTRGELAERALRIAGGLREAGVRPGDAVEVSLPRGPQQVAAVFGVLAAGACYVPLDIDQPPARRRLIEEAAGVCLAITEEDDPQALPPRLDVQRLLRGPALAAPVPLAPQASAYVIYTSGSTGVPKGVEVSHAAAINTIDALLDLLRVNASDRLLAVSALDFDLSVFDLFGGLGAGASLVLPAQEQARDAAAWAEAIQRHAVSLWNSAPALLEMALSLPASQADYRSLRAVLLSGDWVALDLPGRLRPRCAEGCRLHVLGGATEAGIWSNLQSVDTVPPHWRSIPYGRPLPGQAYRVVDTHGRDVPDLVVGELWIGGASLARGYRNDPELSARRFVHDAQGRWYRTGDRGRYWGDGTLEFLGRVDQQVKVRGQRIELGEVEAALCAQAGVESACAAVLGGGVASLGAVLVPRLAPRAEGSMDLPAAQPFAGLAEAEAVLTREILGALLEAPLELDDGLRRRWLDWLADSAASALPSLDEALRRLGWQAAGLTAMGNALRGLLAGEQAPAALLLDPWLAPQAVAARLPDGREALARLLEALPTPAAGERLRVAVLDTRAGLWLDQGMASLLRPGLELTLFERSRVLLDAAATRLPERIVVQALDDGLLPAEHLGRYDRVISFAALHAYEASREGLALAAALLRPQGRLLLVDLLCESPLALLGAALLDDRPLRLAELPSLLADLAAAGLAPRCLWRSERIALVEALAPGLGLDAAALQAGLEQRLPQAMRPERLWCLPSLPLNGNGKVDRRRLAESMTRALGECRHEPSAEEPLEAHEQALAECWEAVLKRPVRRREASFFSLGGDSLLATRLLAGIRERFGVRLGMADFYRQPTLAGLARHLQVQTVEIEETQLEEGVL
modifications: phosphopantetheine (pPant) arms on the ArCP and PCP domains; salicyl-pPant or hydroxyphenylthiazolinyl-pPant seen in some conformations
notes: also called Strep II-tagged PchE; source: E. coli BAP1, purified (Strep-Tactin resin, Superose 6 Increase size exclusion)
With B1, the “stoichiometry N” value in series [1] came out at 2.
